Data set [1] has as its target T1, β2-adrenoreceptors (Cavia porcellus, UniProt Q8K4Z4).
T1 construct: from tissue; host or cells: isolated guinea-pig trachea (tracheal rings)
The experiment in a line: Guinea-pig tracheal strip preparation (relaxation of PGF2a-contracted trachea). The format is cell-based. Particulars: equipotent concentration = EC50 test compound / EC50 isoprenaline; tracheal rings contracted with prostaglandin F2a (2.9x10^-6M), 37°. As for the experimental part:
The compounds according to the invention have a selective stimulant action at P2-adrenoreceptors, which furthermore is of a particularly advantageous profile. […] Compounds according to the invention have shown a particularly long duration of action in this test.
The stimulant action at β2-adrenoreceptors of compounds of the invention was determined using the following:
GUINEA-PIG TRACHEAL STRIP PREPARATION
Tracheal rings were mounted in a superfusion apparatus, and continuously superfused with oxygenated physiological (Kreb's) solution containing indomethacin (2.4x10 ^6M) and atropine (4x10^-7M) at 37° at a rate of 2ml/min. Changes in tension of the preparation were measured using an isometric strain gauge. Preparations were contracted for the duration of the test by the inclusion of prostaglandin F2a (2.9x10^-6M) in the superfusion fluid. Two bolus dose-effect curves to the standard, isoprenaline, (1x10^-12-1x10^-9 moles) were obtained at the start of each test in a cumulative fashion, allowing the relaxation obtained with each to reach its own maximum before the next increment was made. On completion of this dose-effect curve, sufficient time was allowed for the tissue to recover (15-30min). After this time, sequential concentration-effect curves were constructed for first isoprenaline and then the test compound. These were constructed as follows: a low concentration (isoprenaline 3x10-^10M; test compound 1x10^-10M) was infused until any response obtained had reached its maximum, then the infusion was stopped and the tissue allowed to recover for a maximum of 30min. After this period the procedure was repeated using progressively increasing concentrations of agonist, and in this way, whole concentration-effect curves obtained. Potency was determined by comparison of the concentration-effect curve thus constructed with that previously obtained for isoprenaline and expressed as equipotent concentration (isoprenaline = 1) i.e. EC50 test compound was calculated.
Duration of action was also measured for each response, and is the time taken from stopping the infusion to 50% recovery. Graphs were drawn for duration times against response magnitude, and from these, duration times for 50% maximum responses were determined.

Data set [2] has as its system guinea pigs. The experiment in a line: Oral administration to guinea pigs, adverse effects. Particulars: administered orally to guinea pigs at a dose of 5mg/kg. The data set is classed as in vivo. The source says: In general, the compounds according to the invention are non-toxic at therapeutically useful doses.

Structures can show the parent of a compound that is named as a salt.

T1 sequence (Q8K4Z4 whole entry): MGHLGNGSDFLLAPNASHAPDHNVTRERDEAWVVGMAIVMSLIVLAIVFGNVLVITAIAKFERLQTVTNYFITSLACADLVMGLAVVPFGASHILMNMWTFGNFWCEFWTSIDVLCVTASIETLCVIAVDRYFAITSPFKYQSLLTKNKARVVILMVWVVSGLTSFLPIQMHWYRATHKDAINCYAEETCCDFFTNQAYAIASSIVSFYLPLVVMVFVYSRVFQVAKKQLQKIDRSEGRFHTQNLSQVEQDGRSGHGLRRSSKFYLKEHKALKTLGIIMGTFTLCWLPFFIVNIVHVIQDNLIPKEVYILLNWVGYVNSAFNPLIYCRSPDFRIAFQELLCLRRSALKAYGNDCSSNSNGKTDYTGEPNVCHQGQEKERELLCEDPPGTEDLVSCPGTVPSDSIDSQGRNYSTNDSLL

`CC(CCCCCOCCc1ccccc1)NCC(O)c1ccc(O)c(CCO)c1` (stereo not shown) [Example 5, 2-Hydroxy-5-[1-hydroxy-2-[[1-metlayl-6-(2-phenylethoxy)hexyl]amino]ethyl]benzeneethanol hydrochloride (4:3)]: the “Potency (Isoprenaline = 1)” value in data set [1] is recorded as 0.17.

For the molecule `CC(CCCCCOCCc1ccccc1)NCC(O)c1ccc(O)c2[nH]c(=O)ccc12` (stereo not shown) [Example 6, 8-Hydroxy-5-[1-hydroxy-2-[[1-methyl-6-(2-phenylethoxy)hexyl]amino]ethyl]-2(1H)-quinolinone], in data set [2], the adverse effects entry is given as “no adverse effects”. In addition, in data set [1], the “Potency (Isoprenaline = 1)” value came to 0.16.

For `Oc1ccc(C(O)CNCCCCCCOCCCCc2ccccc2)cc1O` (stereo not shown) [Example 7, 4-[1-Hydroxy-2-[[6-(4-phenylbutoxy)hexyl]amino]ethyl]-1,2-benzenediol], in data set [2], the adverse effects result is “no adverse effects”.

Turning to `CC(CCCCCOCCc1ccccc1)NC[C@H](O)c1ccc(O)c(O)c1` (stereo partly drawn) [Example 8, (1R)-4-[1-Hydroxy-2-[1-methyl-6-(2-phenylethoxy)hexyl]amino]ethyl-1,2-benzenediol.], the adverse effects result in data set [2] is “no adverse effects”. Besides, in data set [1], the “Potency (Isoprenaline = 1)” value worked out at 0.4.

With `Oc1cc(O)cc(C(O)CNCCCCCCOCCCCc2ccccc2)c1` (stereo not shown) [Example 10, 5-[1-Hydroxy-2-[[6-(4-phenylbutoxy)hexyl]amino]ethyl]-1,3-benzenediol], the adverse effects entry in data set [2] is recorded as “no adverse effects”.

Take `CC(CCCCCOCCc1ccccc1)NCC(O)c1cc(O)cc(O)c1` (stereo not shown) [Example 12, 5-[1-Hydroxy-2-[[1-methyl-6-(2-phenylethoxy)hexyl]amino]ethyl]-1,3-benzenediol benzoate (salt)]: the “Potency (Isoprenaline = 1)” value in data set [1] turned out to be 0.15.

For the molecule `CC(CCCCCOCCc1ccc(F)cc1)NCC(O)c1cc(O)cc(O)c1` (stereo not shown) [Example 14, 5-[2-[[6-[2-(4-Fluorophenyl)ethoxy]-1-methylhexyl]amino]-1-hydroxyethyl]-1,3-benzenediol, benzoate (salt)], the “Potency (Isoprenaline = 1)” value in data set [1] came to 0.13.

As for `COc1ccc(CCOCCCCCCNCC(O)c2ccc(O)c(O)c2)cc1` (stereo not drawn) [Example 17, 4-[l-Hydroxy-2-[[6-[2-(4-methoxyphenyl)ethoxy]hexyl]amino]ethyl]-1,2-benzenediol], the “Potency (Isoprenaline = 1)” value in data set [1] is on record as 0.6.

For the origin of these results see EP0162576A1, “Ethanolamine compounds” (GLAXO GROUP LIMITED, priority 1984, dated 1985).
